The target of one experiment is HDAC1 (Homo sapiens (Human), UniProt Q13547). Description: HDAC1 in vitro inhibition, dose response. It counts as biochemical. The following applies: Table 2; read-out: HDAC 1 IC50.
The target of the next experiment is HDAC6 (Homo sapiens (Human), UniProt Q9UBN7). Description: HDAC6 in vitro inhibition, dose response. The class given is biochemical. The following applies: Table 2; read-out: HDAC 6 IC50.
A further experiment concerns the target HDAC3 (Homo sapiens (Human), UniProt O15379). Description: HDAC3 in vitro inhibition, dose response. The class given is biochemical. To be noted: Table 2; read-out: HDAC 3 IC50.
For the next experiment, the target named is HDAC2 (Homo sapiens (Human), UniProt Q92769). Kind of experiment: HDAC2 in vitro inhibition, dose response. The following applies: Table 2; read-out: HDAC 2 IC50. The class given is biochemical.
The target in another experiment is HDAC8 (Homo sapiens (Human), UniProt Q9BY41). Kind of experiment: HDAC8 in vitro inhibition, dose response. To be noted: Table 2; read-out: HDAC 8 IC50. The class given is biochemical.
In a further experiment the test system is HCT116 and A549 cells. Description: Acetylation of non-histone proteins by Western blotting. To be noted: HCT116 and A549, 1 h; TSA 0.2 μM, UF010 2 μM. It counts as cell-based. (In general: Immunoblotting shows a protein as a band on a membrane.)
For a further experiment, the system named is HCT116 cells. Description: Histone acetylation by Western blotting. The class given is cell-based. The following applies: HCT116, 1 h exposure; TSA 0.2 μM, others 2 μM (FIG. 1A).

HDAC2, sequence (Q92769 whole entry): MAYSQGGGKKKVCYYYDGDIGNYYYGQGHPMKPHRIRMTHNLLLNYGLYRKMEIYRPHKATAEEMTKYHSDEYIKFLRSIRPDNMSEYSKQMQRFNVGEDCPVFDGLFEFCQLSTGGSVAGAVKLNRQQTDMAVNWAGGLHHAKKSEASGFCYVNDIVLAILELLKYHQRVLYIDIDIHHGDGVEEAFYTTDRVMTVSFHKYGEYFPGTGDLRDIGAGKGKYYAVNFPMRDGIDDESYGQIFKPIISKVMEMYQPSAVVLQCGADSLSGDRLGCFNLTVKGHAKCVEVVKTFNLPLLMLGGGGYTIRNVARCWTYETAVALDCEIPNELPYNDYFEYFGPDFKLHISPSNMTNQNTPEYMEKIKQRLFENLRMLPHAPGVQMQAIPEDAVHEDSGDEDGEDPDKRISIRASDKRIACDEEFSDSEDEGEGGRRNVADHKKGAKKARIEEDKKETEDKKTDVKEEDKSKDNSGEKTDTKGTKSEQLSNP
HDAC1, sequence (Q13547 whole entry): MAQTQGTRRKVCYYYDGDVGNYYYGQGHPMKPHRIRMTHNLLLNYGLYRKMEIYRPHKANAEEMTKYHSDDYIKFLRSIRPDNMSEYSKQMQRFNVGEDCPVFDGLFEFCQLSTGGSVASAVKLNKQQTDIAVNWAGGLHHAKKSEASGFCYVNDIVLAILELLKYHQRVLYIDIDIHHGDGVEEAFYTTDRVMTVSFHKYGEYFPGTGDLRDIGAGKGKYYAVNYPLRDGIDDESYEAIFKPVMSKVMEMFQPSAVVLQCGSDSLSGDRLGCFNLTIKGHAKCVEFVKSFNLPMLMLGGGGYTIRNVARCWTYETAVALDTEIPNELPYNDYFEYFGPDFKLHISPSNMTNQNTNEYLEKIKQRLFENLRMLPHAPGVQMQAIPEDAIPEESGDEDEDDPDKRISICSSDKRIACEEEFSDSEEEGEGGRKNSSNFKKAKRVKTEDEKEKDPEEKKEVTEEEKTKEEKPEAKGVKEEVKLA
HDAC8, sequence (Q9BY41 whole entry): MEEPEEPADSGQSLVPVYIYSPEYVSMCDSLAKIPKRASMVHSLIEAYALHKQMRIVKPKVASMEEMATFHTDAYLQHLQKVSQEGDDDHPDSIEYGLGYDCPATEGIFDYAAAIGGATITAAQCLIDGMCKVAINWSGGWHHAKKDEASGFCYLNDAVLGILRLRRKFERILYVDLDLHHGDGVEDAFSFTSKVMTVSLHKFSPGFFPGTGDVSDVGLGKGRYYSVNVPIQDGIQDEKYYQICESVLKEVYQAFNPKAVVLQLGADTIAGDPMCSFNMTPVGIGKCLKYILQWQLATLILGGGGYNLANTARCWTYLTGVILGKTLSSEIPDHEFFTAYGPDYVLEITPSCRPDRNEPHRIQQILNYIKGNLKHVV
HDAC3, sequence (O15379 whole entry): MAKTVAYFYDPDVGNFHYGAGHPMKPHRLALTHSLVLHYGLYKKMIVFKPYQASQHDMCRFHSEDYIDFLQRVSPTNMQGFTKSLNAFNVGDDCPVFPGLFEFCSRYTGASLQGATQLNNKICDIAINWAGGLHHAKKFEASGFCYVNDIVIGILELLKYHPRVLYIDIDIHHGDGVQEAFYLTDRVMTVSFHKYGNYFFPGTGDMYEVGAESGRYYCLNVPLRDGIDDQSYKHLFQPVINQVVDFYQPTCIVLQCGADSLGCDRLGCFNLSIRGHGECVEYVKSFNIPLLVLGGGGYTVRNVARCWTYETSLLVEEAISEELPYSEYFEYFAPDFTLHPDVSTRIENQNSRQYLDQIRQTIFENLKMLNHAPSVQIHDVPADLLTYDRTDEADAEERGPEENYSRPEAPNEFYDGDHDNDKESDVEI
HDAC3, sequence (Q9Y618 395-489 partner): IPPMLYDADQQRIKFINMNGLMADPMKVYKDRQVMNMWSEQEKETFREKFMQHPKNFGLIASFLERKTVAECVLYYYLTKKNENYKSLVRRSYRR
HDAC6, sequence (Q9UBN7 whole entry): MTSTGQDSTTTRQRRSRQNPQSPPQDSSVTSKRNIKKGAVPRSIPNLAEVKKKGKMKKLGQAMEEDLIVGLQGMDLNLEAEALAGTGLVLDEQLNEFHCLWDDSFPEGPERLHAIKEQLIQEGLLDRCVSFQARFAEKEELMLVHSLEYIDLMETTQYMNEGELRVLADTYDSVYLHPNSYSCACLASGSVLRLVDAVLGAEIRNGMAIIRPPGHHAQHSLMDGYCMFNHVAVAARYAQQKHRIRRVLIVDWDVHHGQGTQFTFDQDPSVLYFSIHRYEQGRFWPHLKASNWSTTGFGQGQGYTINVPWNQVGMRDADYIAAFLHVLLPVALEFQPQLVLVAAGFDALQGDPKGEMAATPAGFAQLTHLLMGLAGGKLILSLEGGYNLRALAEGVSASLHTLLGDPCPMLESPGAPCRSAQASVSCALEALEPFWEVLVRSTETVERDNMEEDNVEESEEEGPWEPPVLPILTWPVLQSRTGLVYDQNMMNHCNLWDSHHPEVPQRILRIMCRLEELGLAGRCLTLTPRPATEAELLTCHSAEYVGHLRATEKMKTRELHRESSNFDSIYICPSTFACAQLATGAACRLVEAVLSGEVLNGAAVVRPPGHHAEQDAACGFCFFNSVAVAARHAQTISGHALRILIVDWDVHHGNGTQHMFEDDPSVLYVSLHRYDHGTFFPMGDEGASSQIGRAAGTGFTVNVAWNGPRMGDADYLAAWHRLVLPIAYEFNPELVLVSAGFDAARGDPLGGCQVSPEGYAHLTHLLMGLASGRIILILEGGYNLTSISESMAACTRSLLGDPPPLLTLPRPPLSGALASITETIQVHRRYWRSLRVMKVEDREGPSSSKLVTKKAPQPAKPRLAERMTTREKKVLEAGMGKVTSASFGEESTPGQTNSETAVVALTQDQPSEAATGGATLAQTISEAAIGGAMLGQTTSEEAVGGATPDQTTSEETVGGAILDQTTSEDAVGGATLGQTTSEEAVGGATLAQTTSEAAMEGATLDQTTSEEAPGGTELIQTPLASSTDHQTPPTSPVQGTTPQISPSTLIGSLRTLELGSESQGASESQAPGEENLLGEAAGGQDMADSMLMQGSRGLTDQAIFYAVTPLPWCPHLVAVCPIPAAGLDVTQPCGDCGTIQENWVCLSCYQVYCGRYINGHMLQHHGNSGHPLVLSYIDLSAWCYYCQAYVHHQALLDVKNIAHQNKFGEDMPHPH

For `CCCCNNC(=O)c1ccc(-c2cc(C)cc(F)c2)cc1` [SR-4372, N′-butyl-3′-fluoro-5′-methylbiphenyl-4-carbohydrazide], the IC50 (as a rule, the concentration needed to halve the response being measured) at HDAC1 worked out at 0.76 µM; on HDAC6, 3.7 µM; on HDAC3, 0.38 µM; at HDAC2, 1.2 µM; on HDAC8 it was 3.6 µM.
`CCCNNC(=O)c1ccc(Br)cc1` [RLS2-137, 4-bromo-N′-propylbenzohydrazide]: the IC50 on HDAC1 amounted to 1.7 µM; at HDAC3, 0.22 µM; at HDAC2, 3.88 µM.
On to `CCCCNNC(=O)c1cccnc1` [RLS2-289, N′-butylnicotinohydrazide], for which the IC50 on HDAC1 came to 14.5 µM; on HDAC3, 4.35 µM; on HDAC2, 56.7 µM.
`CCCCNNC(=O)c1ccc(-c2ccccc2)cc1` [RLS3-43, N′-butylbiphenyl-4-carbohydrazide]: the IC50 is 0.09 µM on HDAC1, 0.8 µM at HDAC2 and 2.43 µM at HDAC8.
As to `CCCCNNC(=O)c1ccc(C(C)(C)C)cc1` [RLS2-211, 4-tert-butyl-N′-butylbenzohydrazide], the IC50 at HDAC1 came out at 0.19 µM; at HDAC6, 0.045 µM; at HDAC3, 0.07 µM; on HDAC2, 1.04 µM; on HDAC8, 0.045 µM.
As to `CC(C)NNC(=O)c1ccccc1` [RLS2-185, N′-isopropylbenzohydrazide], the IC50 on HDAC1, on HDAC3 and at HDAC2 was more than 50 µM in each case.
For the compound `CN(C)c1ccc(C(=O)NNCC2CCCC2)cc1` [RLS2-225, N′-(cyclopentylmethyl)-4-(dimethylamino)benzohydrazide], the IC50 on HDAC1 came to 1.76 µM; on HDAC3, 1.67 µM; at HDAC2, 3.25 µM.
The matching figures for `CCCCNNC(=O)c1cccc(OCC)c1` [RLS2-303, N′-butyl-3-ethoxybenzohydrazide]: more than 50 µM, more than 50 µM and more than 50 µM.
As to `O=C(NNCCCC1CCCC1)c1ccc2ccccc2c1` [RLS2-249, N′-(3-cyclopentylpropyl)-2-naphthohydrazide], the IC50 at HDAC1, at HDAC3 and on HDAC2 was more than 50 µM each time.
`O=C(NNCC1CCCC1)c1ccc2ccccc2c1` [RLS2-254, N′-(cyclopentylmethyl)-2-naphthohydrazide]: the IC50 on HDAC1, on HDAC3 and on HDAC2 was more than 50 µM in each case.
As for `CCCCNNC(=O)c1ccc(OC)c(OC)c1` [RLS3-11, N′-butyl-3,4-dimethoxybenzohydrazide], the concentration for half-maximal inhibition (IC50) at HDAC1 amounted to 22.2 µM; on HDAC3, 4 µM; at HDAC2 it was 20.4 µM.
As to `CCCNNC(=O)c1ccc2ccccc2c1` [RLS2-255, N′-propyl-2-naphthohydrazide], the IC50 at HDAC1 is 3.5 µM; at HDAC3, 1.65 µM; at HDAC2, 6.68 µM.
For `CCCCNNC(=O)c1ccc(F)cc1` [RLS2-123, N′-butyl-4-fluorobenzohydrazide], the IC50 at HDAC1 stood at 13.2 µM; on HDAC3, 1.78 µM; on HDAC2 it was 15.1 µM.
The matching figures for `O=C(NNCC1CCCC1)c1ccc(Br)cc1` [RLS2-256, 4-bromo-N′-(cyclopentylmethyl)benzohydrazide]: 8.81 µM, 6.98 µM and 28.4 µM.
With `CCCCNNC(=O)c1ccc2ccccc2c1` [RLS2-238, N′-butyl-2-naphthohydrazide], the IC50 is 4.3 µM on HDAC1 and 5.92 µM on HDAC2.
On to `CCCCNNC(=O)c1ccc([N+](=O)[O-])cc1` [RLS2-128, N′-butyl-4-nitrobenzohydrazide], for which the IC50 on HDAC1 came to 21.3 µM; at HDAC3 it was 2.47 µM; on HDAC2, 21.2 µM.
`CCCCNNC(=O)c1ccc(CN=[N+]=[N-])cc1` [RLS2-312, 4-(azidomethyl)-N′-butylbenzohydrazide]: the IC50 on HDAC1 worked out at 0.32 µM; on HDAC6, 0.009 µM; on HDAC3 it was 0.15 µM; on HDAC2, 0.527 µM.
As to `CCCCNNC(=O)c1ccncc1` [RLS2-290, N′-butylisonicotinohydrazide], the half-inhibitory concentration (IC50) worked out at 4.28 µM on HDAC1, 1.4 µM at HDAC3 and 13.7 µM on HDAC2.
For `CCCCNNC(=O)c1ccccc1-c1ccccc1` [RLS3-4, N′-butylbiphenyl-2-carbohydrazide], in that order: more than 50 µM, more than 50 µM and more than 50 µM.
The matching figures for `NNC(=O)c1ccc2ccccc2c1` [RLS2-243, 2-naphthohydrazide]: more than 50 µM, more than 50 µM and more than 50 µM.
Turning to `CC(/C=C/C(=O)NO)=C\[C@@H](C)C(=O)c1ccc(N(C)C)cc1` [TSA, Trichostatin A, reference compound], the α-tubulin acetylation entry in the experiment on HCT116 and A549 cells is given as “dramatically increased”. For the same compound, the “accumulation of acetylated histones” value in the experiment on HCT116 cells is reported as “strongly induced acetylation at some sites but weakly at other sites”.
As for `Cc1ccc(C(=O)NNC(C)(C)C)cc1` [RLS2-187, N′-tert-butyl-4-methylbenzohydrazide], the IC50 at HDAC1, on HDAC3 and at HDAC2 was more than 50 µM in each case.
In the case of `CCCCNNC(=O)c1ccc(OC(F)(F)F)cc1` [RLS2-124, N′-butyl-4-(trifluoromethoxy)benzohydrazide], the values for the IC50 at HDAC1, at HDAC3 and at HDAC2 were 8.86 µM, 1.35 µM and 9.09 µM, respectively.
For `CCCCNNC(=O)c1cccc(I)c1` [RLS3-5, N′-butyl-3-iodobenzohydrazide], the IC50 is 31.4 µM at HDAC1, more than 50 µM on HDAC3 and 47 µM at HDAC2.
The matching figures for `CCCCNNC(=O)c1ccc(OCC)c(OCC)c1` [RLS3-14, N′-butyl-3,4-diethoxybenzohydrazide]: 11.8 µM, 0.8 µM and 7.4 µM.
Take `CCCCNNC(=O)c1cc2ccccc2cc1O` [RLS2-210, N′-butyl-3-hydroxy-2-naphthohydrazide]: the half-inhibitory concentration (IC50) at HDAC1, on HDAC3 and at HDAC2 was more than 50 µM throughout.
For `CCCCNNC(=O)c1ccccc1F` [RLS2-305, N′-butyl-2-fluorobenzohydrazide], the IC50 at HDAC1 was determined as 72.3 µM; on HDAC3, 42.4 µM; at HDAC2, 79.6 µM.
The matching figures for `CCCCCCNNC(=O)c1ccc(Br)cc1` [RLS2-284, 4-bromo-N′-hexylbenzohydrazide]: 10.3 µM, 20 µM and 16.1 µM.
The matching figures for `CCNNC(=O)c1ccc2ccccc2c1` [RLS2-240, N′-ethyl-2-naphthohydrazide]: more than 50 µM, more than 50 µM and more than 50 µM.
For the compound `O=C(NNCCc1ccccc1)c1ccc(Br)cc1` [RLS2-138, 4-bromo-N′-phenethylbenzohydrazide], the half-inhibitory concentration (IC50) at HDAC1, on HDAC3 and at HDAC2 was more than 50 µM in each case.
As to `O=C(NNCCCC1CCCC1)c1ccc(Br)cc1` [RLS2-257, 4-bromo-N′-(3-cyclopentylpropyl)benzohydrazide], the IC50 on HDAC1, at HDAC3 and on HDAC2 was more than 50 µM each time.
For the compound `CCCCNNC(=O)c1ccc(Cl)cc1` [RLS2-133, N′-butyl-4-chlorobenzohydrazide], the 50% inhibitory concentration (IC50) turned out to be 3.75 µM on HDAC1, 0.95 µM on HDAC3 and 5.82 µM at HDAC2.
As for `CCCCCCNNC(=O)c1ccc(C(C)(C)C)cc1` [RLS2-283, 4-tert-butyl-N′-hexylbenzohydrazide], the IC50 on HDAC1 worked out at 2.25 µM; at HDAC3, 8.08 µM; on HDAC2 it was 2.82 µM.
The matching figures for `O=C(NNCCC1CCCC1)c1ccc(Br)cc1` [RLS2-219, 4-bromo-N′-(2-cyclopentylethyl)benzohydrazide]: 7.4 µM, 1.08 µM and 7.65 µM.
For “N′-butyl-3-fluorobenzohydrazide [RLS2-306]”, in that order: 8.63 µM, 4.77 µM and 10.9 µM.
The matching figures for `CCCCNNC(=O)c1cccc(C(F)(F)F)c1` [RLS3-6, N′-butyl-3-(trifluoromethyl)benzohydrazide]: 35.3 µM, 1.88 µM and 93.3 µM.
Take `CCCCNNC(=O)c1ccc(OC)c(OC)c1` [RLS3-20]: the IC50 on HDAC1 is more than 50 µM; on HDAC3, 13.8 µM; at HDAC2, 30.1 µM.
For the compound `CCCCNNC(=O)c1ccc(-c2cc(C(=O)OCC)ccc2F)cc1` [SR-4373, ethyl 4′-(2-butylhydrazinecarbonyl)-6-fluorobiphenyl-3-carboxylate], the IC50 is 1.3 µM on HDAC1, 6.5 µM on HDAC6 and 0.42 µM at HDAC3.
Consider `CCCCNNC(=O)c1ccc(OC)cc1` [RLS2-126, N′-butyl-4-methoxybenzohydrazide], for which the figures for the concentration for half-maximal inhibition (IC50) at HDAC1, on HDAC3 and on HDAC2 were 1.91 µM, 0.43 µM and 2.52 µM, respectively.
As to `CCCCNNC(=O)c1ccc(-c2cncnc2)cc1` [SR-4369, N′-butyl-4-(pyrimidin-5-yl)benzohydrazide], the IC50 on HDAC1 was found to be 1.24 µM; at HDAC3, 2.29 µM; on HDAC2, 7.27 µM.

(Values after US10807944B2, “HDAC inhibitor compounds and methods of treatment” (priority 2014, dated 2020).)
